Data: paper PMC12752627, “Discovery of a Potent and Selective TEAD Degrader with Durable Degradation Activity” (Advanced Science, 2025)

Experiments:
[1] = test system: CTGF, ANKRD1, NPPB, PTX3 expression; assay: RT-qPCR in A172 cells incl. washout; format: cell-based; settings: 6 h treatment, 18 h
Method: Cells were seeded in 6‐well plates at a density of 1 million cells per well. The following day, different concentrations of compounds were added, and cells were collected after 24 h. For wash‐out experiments, cells were pre‐treated with compounds at indicated concentrations for 6 h, then cells were washed three times with PBS, and an equal volume of complete medium without compounds was added and incubated for another 18 h.
RNA was isolated and purified from the samples using the EZ‐10 Rotary Column Total RNA Isolation Kit (Sangon Biotech, B615012). After measuring the RNA concentration, 200 ng of purified RNA was used for genomic DNA removal and reverse transcription to cDNA with the HiScript III 1st Strand cDNA Synthesis Kit (+DNA wiper) (Vazyme, R312‐02). The resulting cDNA was then prepared into a reaction mix according to the ChamQ SYBR qPCR Mix (Vazyme, #q711‐02). Real‐time PCR analysis was performed using a QuantStudio 6 Pro real‐time PCR system (Thermo Fisher Scientific). Relative gene expression was calculated using the 2‐∆∆CT method.

[2] = target: T1, TEAD3 (Homo sapiens, UniProt Q99594); assay: HiBiT degradation assay, HEK293T HiBiT-TEAD3; format: cell-based; settings: 6 h
T1 construct: endogenous in cells; host or cells: HEK293T HiBiT knock-in
T1 sequence (Q99594 whole entry): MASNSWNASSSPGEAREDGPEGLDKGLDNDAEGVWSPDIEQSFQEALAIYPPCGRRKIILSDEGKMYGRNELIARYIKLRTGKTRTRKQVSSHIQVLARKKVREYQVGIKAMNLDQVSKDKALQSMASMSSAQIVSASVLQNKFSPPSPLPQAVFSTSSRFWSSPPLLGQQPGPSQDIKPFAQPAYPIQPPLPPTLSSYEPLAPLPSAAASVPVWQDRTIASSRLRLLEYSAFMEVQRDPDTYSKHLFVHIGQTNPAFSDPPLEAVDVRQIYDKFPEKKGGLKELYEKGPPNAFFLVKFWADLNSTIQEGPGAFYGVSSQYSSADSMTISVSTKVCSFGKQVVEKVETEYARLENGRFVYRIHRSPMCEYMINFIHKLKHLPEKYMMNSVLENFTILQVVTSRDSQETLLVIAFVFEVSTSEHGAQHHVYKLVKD
Method: (§1) HiBiT cells were inoculated into 96‐well flat‐bottomed tissue culture plates at a density of 50 000 cells per well, followed by adding degraders into the wells using the I‐DOT dispenser. After 6 h of incubation, the cells were lysed and assayed for degradation using the Nano‐Glo HiBiT Lysis Assay System (Promega, #N3030). Luminescence signals were read using an Envision plate reader (Revvity) and the data were analyzed using GraphPad Prism 9.5 software.
(§2) The ribonucleoprotein (RNP) complex was prepared by mixing 2 µg of NLS‐Cas9‐EGFP nuclease (Novoprotein, #E379‐01A), 50 pmol of sgRNA, 10 µL of electrotransfer solution, and 50 pmol of designed donor DNA, then incubated for 10 min at room temperature. One million HEK293T cells were resuspended in 10 µL of electrotransfection solution and mixed with 10 µL of the RNP complex. Electroporation was performed using a Celetrix SP100 electroporator at 480 V. After electroporation, the cells were transferred to antibiotic‐free DMEM complete medium for overnight culture. The following day, EGFP‐positive cells were sorted using a Sony MA 900 cell sorter, plated in a 96‐well cell culture plate (Servicebio, #CCP‐96H), and cultured for 4 weeks. After this period, positive clones were screened using the Nano‐Glo HiBiT Lytic Detection system (Promega, #N3030).

[3] = test system: ES2 xenograft; assay: ES2 xenograft efficacy study; format: in vivo, BALB/c nude mice; settings: 10 and 30 mg/kg
Method: (§3) Animal experiments were conducted by Medsyin (Shanghai) Co., Ltd. The experimental protocol was approved by the IACUC of the company (No.: PZWH‐2025031003) and strictly adhered to the guidelines of the AAALAC. The specific procedures are as follows: 5 × 10^6 MSTO‐211H cells or ES2 cells were suspended in 100 µL of a mixture of PBS and Matrigel and inoculated subcutaneously into the right axilla of 6‐week‐old BALB/c nude mice. Drug administration was initiated on day 7 after cell inoculation (when the average tumor volume was ≈150 mm^3). The experiment was divided into four groups with 6 mice in each group. The specific grouping and administration methods are as follows: control group, KY‐001 group (10 mg kg^−1, p.o.), KG‐FP‐003 (10 mg kg^−1 or 30 mg kg^−1, i.p.). The administration routes included intraperitoneal injection and intragastric administration, once a day for 21 consecutive days. During the experiment, the body weight and tumor volume of the mice were measured twice a week. At the end of the experiment, the mice were sacrificed and tumor tissues were collected.

[4] = test system: MSTO-211H CRBN knockout cells; assay: Cell viability assay, CRBN-knockout MSTO-211H; format: cell-based; settings: Homo sapiens, Figure 3D, read-out: MSTO-211H: CRBN KO IC50
Method: (§4) Cells were seeded at a density of 1000 cells per well in 96‐well flat‐bottomed cell culture plates and cultured overnight at 37 °C with 5% CO2 to allow for cell attachment. The following day, different concentrations of compounds were added using an I‐DOT dispenser. After 72 h, 25 µL of CellTiter‐Meiluncell Luminescent Cell Viability Reagent (Meilunbio, #PWL111‐2) was added and incubated for 15 min at room temperature. Luminescence signals were then measured using an Envision plate reader (Revvity). Data were analyzed using GraphPad Prism 9.5 software.^[ [30] ^]

[5] = test system: MSTO-211H xenograft; assay: MSTO-211H xenograft efficacy study; format: in vivo, BALB/c nude mice; settings: for Tumor growth inhibition (TGI) rate: MSTO-211H xenograft
Method: as §3

[6] = test system: HOS cells; assay: Cell viability assay (CTG, 72 h) HOS; format: cell-based; settings: Homo sapiens, HOS, 72 h, 3-day compound treatment
Method: as §4

[7] = test system: IKZF1-3, GSPT1; assay: HiBiT off-target assessment (IMiD substrates); format: cell-based; settings: HiBiT-tagged cell lines, 6 h
Method: as §1

[8] = test system: NCI-H226 cells; assay: DIA proteomics in NCI-H226 cells; format: cell-based, Homo sapiens; settings: 100 nM, 24 h
Method: Cells were seeded in 6‐well plates at 1 × 10⁶ cells well^−1 and treated with 100 nM KG‐FP‐003 (n = 3). After 24 h incubation, cells were harvested, washed with ice‐cold PBS, and stored at −80 °C. Cell pellets were lysed in 4 volumes of lysis buffer (1% SDS, 1% protease inhibitor cocktail) followed by 3 min sonication on ice. After centrifugation (12 000 g, 10 min, 4 °C), supernatants were collected for BCA protein quantification. Proteins were reduced with 5 mM DTT (56 °C, 30 min), alkylated with 11 mM iodoacetamide (RT, dark, 15 min), and diluted with 200 mM TEAB to reduce urea concentration below 2 M. Trypsin digestion (1:50 enzyme‐to‐protein ratio) was performed at 37 °C overnight followed by additional 4 h digestion. Peptides were desalted using Strata‐X SPE columns. […] MS analysis was performed on a timsTOF Pro mass spectrometer in dia‐PASEF mode (ESI voltage: 1.75 kV; scan range: 300–1500 m z^−1). DIA data were processed using DIA‐NN (v1.8) against the Homo_sapiens_9606_SP_20 231 220.fasta database (20429 entries) with reversed decoys, using trypsin as the cleavage enzyme. Fixed modifications included N‐terminal methionine excision and carbamidomethylation of cysteine, with FDR set at <1%.

[9] = target: T2, TEAD2 (Homo sapiens, UniProt Q15562); assay: HiBiT degradation assay, HEK293T HiBiT-TEAD2; format: cell-based; settings: 6 h
T2 construct: endogenous in cells; host or cells: HEK293T HiBiT knock-in
T2 sequence (Q15562 whole entry): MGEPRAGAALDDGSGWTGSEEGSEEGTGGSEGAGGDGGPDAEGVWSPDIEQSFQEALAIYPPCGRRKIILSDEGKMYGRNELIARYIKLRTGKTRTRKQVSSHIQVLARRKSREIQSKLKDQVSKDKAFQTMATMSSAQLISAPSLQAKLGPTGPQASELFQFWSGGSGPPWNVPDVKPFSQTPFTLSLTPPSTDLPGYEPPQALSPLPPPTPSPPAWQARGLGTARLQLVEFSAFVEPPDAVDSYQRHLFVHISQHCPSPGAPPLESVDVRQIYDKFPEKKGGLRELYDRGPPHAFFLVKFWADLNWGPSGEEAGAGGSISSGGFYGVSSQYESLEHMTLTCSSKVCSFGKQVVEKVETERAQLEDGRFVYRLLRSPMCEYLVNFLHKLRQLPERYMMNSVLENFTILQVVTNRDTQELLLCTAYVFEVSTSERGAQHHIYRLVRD
Method: as §1, §2

## CNC(=O)c1cc2c(c(F)c1-c1c(Cl)c(F)cc3c1C[C@@](CN[C@H]1CC[C@H](C(=O)N4CCC(CC5CCN(C(=O)COc6ccc(N7CCC(=O)NC7=O)c(C)c6)CC5)CC4)CC1)(c1ccccc1)O3)[C@@H](O)[C@@H](C)C2 [KG-FP-003]
[1]
  Repression of TEAD target genes after washout (qPCR): sustained and pronounced repression
[2]
  DC50: 12 ± 5 nM
  TEAD3 Dmax: ≈ 90%
[2]; HEK-293T
  Dmax: 87 ± 9%
[3]
  Tumor response in ES2 xenograft: significant tumor regression
[4]
  IC50: 543 ± 50 nM
[5]; 10 mg/kg i.p. q.d. 21 days
  Tumor growth inhibition (TGI) rate: 118%
[5]; 30 mg/kg i.p. q.d. 21 days
  Tumor growth inhibition (TGI) rate: 129%
[5]; 10 or 30 mg/kg i.p., 21 days, MSTO-211H xenograft mice
  Body weight during treatment: stable body weights
[6]
  IC50: 1.2 ± 1.5 nM
[7]
  Off-target degradation of IMiD substrates IKZF1-3 and GSPT1: no off‐target degradation was detected
[8]
  Proteome-wide selectivity: selective downregulation of TEAD1 and TEAD4
[9]
  DC50: 68 ± 15 nM
  TEAD2 Dmax: over 80%
[9]; HEK-293T
  Dmax: 84 ± 5%
